# Earlier results, collected in patent EP4174079B1 (UNIWERSYTET JAGIELLONSKI, priority 2021, dated 2023).
# Settings: compared with cisplatin
smiles,measurement,value
[Cl][Pt][Cl].c1cn[nH]c1.c1cn[nH]c1 [Cis-PtCl2(pzH)2],antitumour activity,significantly lower than cisplatin
